Tests used:
[1] = fatal poisoning/overdose, Scotland, England and Wales; cited from earlier work
[2] = test system: severe neuropathic pain; assay: Example 2: diabetic clinic patients with severe neuropathic pain; assay type: in vivo
From the text: Four patients at a diabetic clinic present with severe neuropathic pain. Conventional analgesics are of no benefit.

[3] = test system: ECG interval; conditions: rats infused with the antidepressant; cited from earlier work
[4] = test system: neuropathic pain; conditions: in vivo; cited from earlier work
[5] = test system: major depression with aches and pains; assay: Example 1: patients with major depression and multiple aches and pains; assay type: in vivo; conditions: three patients, commenced 70 mg twice daily, final 140mg to 280mg daily
Procedure: Three patients who fulfilled criteria for major depression present with multiple aches and pains for which there is no obvious physical cause. […] The final dose of medication ranges from 140mg daily to 280mg daily.

[6] = test system: NA and 5HT reuptake; assay: NA versus 5HT reuptake selectivity from comparative Ki's (Bolden-Watson and Richelson); assay type: biochemical
From the text: There are a number of ways in which the ratio of NA to 5HT reuptake in antidepressant molecules may be measured. The selectivity a drug for various receptors may be compared by use of comparative Ki's and not comparative IC 50 values. (Bolden-Watson, C and Richelson, E., Life Sci, (52), 1993, 1023-1029), which is hereby incorporated by reference.

[7] = target: D2 receptor (Homo sapiens, UniProt P14416); assay: activity at the dopamine D2 receptor
[8] = test system: serotonin synthesis; assay: serotonin synthesis in the brain; conditions: in vivo
[9] = sedation; conditions: in vivo

Sequence of D2 receptor (P14416 whole entry): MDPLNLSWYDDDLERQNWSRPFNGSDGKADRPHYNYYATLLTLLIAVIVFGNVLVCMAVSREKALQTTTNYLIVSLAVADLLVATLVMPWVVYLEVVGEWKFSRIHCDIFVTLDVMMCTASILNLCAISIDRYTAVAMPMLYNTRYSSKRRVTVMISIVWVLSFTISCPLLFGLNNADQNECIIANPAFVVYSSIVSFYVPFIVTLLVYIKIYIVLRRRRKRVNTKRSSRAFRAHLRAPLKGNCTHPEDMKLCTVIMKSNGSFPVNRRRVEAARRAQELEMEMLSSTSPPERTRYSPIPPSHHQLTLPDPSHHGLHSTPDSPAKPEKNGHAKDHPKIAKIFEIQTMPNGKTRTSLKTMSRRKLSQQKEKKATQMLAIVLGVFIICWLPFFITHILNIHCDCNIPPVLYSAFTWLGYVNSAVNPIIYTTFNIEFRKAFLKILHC

For `COc1ccc(C(CN(C)C)C2(O)CCCCC2)cc1` (centres unmarked) [venlafaxine], the “fatalities per million prescriptions” value [1] is given as 13.2 per million prescriptions.
In the case of `CNCC[C@H](Oc1cccc2ccccc12)c1cccs1` [duloxetine], the “response of neuropathic pain to prior treatment” value ([2]; four diabetic patients, prescribed before lofepramine) is reported as “failed to respond”.
For `CNCCCN1c2ccccc2CCc2ccccc21` [desipramine], the “prolongation of the ECG interval” value [3] is given as “prolong the ECG interval” and the “fatalities per million prescriptions” value [1] is given as 200.9 per million prescriptions.
For `CC(NC(C)(C)C)C(=O)c1cccc(Cl)c1` (centres unmarked) [buproprion], the “effectiveness in neuropathic pain” value [4] is given as “has not been found to be effective”.
In the case of `CN(CCCN1c2ccccc2CCc2ccccc21)CC(=O)c1ccc(Cl)cc1` [lofepramine], the “improvement in symptoms including pain” value [5] is reported as “All three show improvement in all symptoms including pain within four weeks”, the “NA:5HT ratio relative to desipramine” value [6] is reported as “about four times that of desipramine” and the “NE: 5-HT ratio relative to milnacipran” value [6] is reported as “higher than that of milnacipran”. The “prolongation of the ECG interval” value [3] was “does not”, the “activity at the D2 receptor” value [7] was “potent activity” and the “relief of neuropathic pain” value ([2]; four diabetic patients, 70 mg tds, after failure of analgesics and duloxetine) was “dramatic relief of pain in 3 of the 4 cases”. For the same compound, the “response after escalation of the dose” value ([2]; patient 4, escalated dose) was “results in improvement”, the “effect on serotonin synthesis in the brain” value [8] was “up-regulate serotonin synthesis in the brain” and the induction of sedation [9] was “does not induce sedation”. The “fatalities per million prescriptions” value [1] was 1.3 per million prescriptions.
For `CN(C)CCCN1c2ccccc2CCc2ccccc21` [imipramine], the “prolongation of the ECG interval” value [3] is given as “prolong the ECG interval”.
In the case of `CN(C)CCC=C1c2ccccc2CCc2ccccc21` [amitriptyline], the “prolongation of the ECG interval” value [3] is given as “prolong the ECG interval”.

Reference: US20090306050A1, “TREATMENT AND PREVENTION OF DEPRESSION WITH PAIN, DEPRESSION SECONDARY TO PAIN, AND OF NEUROPATHIC PAIN” (priority 2006, published 2009)
